Measurements taken from patent publication US5436260A, “Angiotensin II receptor antagonists” (Warner-Lambert Company, priority 1994, dated 1995).
Structures can show the parent of a compound that is named as a salt.

Target: T1, AT1 receptor (Rattus norvegicus, UniProt P25095)
T1 construct: rat liver membranes; from tissue; host or cells: rat liver membranes
T1 sequence (P25095 1-359): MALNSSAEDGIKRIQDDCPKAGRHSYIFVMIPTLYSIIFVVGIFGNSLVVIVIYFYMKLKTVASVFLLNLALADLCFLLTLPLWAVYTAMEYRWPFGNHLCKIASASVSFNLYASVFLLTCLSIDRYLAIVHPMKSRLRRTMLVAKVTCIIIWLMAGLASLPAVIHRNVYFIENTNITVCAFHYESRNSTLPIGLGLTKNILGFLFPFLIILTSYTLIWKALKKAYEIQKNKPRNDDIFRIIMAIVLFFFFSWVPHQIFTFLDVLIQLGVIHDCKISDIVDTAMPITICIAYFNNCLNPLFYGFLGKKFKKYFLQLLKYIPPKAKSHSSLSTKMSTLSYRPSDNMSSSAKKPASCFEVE
Assay: [^3 H]angiotensin II binding to rat liver membranes (AT1 test)
Settings: inhibition of [^3 H]angiotensin II binding
Method: The compounds of Formula I or Ia are antagonists of angiotensin II. Dudley, D. T., et al, Molecular Pharmacology 1990;38:370-377 reported the existence of 2 subclasses of angiotensin II binding sites in rabbit adrenal gland and uterus and in the rat liver which differ in their tissue distribution and affinity for various peptide and nonpeptide ligands. Thus, the compounds of Formula I or Ia were tested for their ability to inhibit [^3 H]angiotensin II binding to rat liver membranes (AT1 test) according to the methods described by Dudley, D. T., et al, Molecular Pharmacology 1990;38:370-7. […] It is well established that compounds which antagonize the effect of angiotensin II at the AT1 receptor have value for treatment of hypertension and heart failure.

| SMILES | IC50 |
| --- | --- |
| CCCCc1ncc(/C=C2/C(=O)N(CCCC)C(=O)N2C(c2ccccc2)c2ccccc2)n1Cc1ccc(C(=O)OC)cc1 [Example 42, Methyl Z-4-[[2-butyl-5-[[1-butyl-2,5-dioxo-3-(diphenylmethyl)-4-imidazolidinylidene]methyl]-1H-imidazol-1-yl]methyl]benzoate mono hydrochloride] | 884 nM |
| CCCCc1ncc(/C=C2/C(=O)N(CCCC)C(=O)N2CC2CCCCC2)n1Cc1ccc(C(=O)OC)cc1 [Example 43, Methyl Z-4-[[2-butyl-5-[[1-butyl-3-(cyclohexylmethyl)-2,5-dioxo-4-imidazolidinylidene]methyl]-1H-imidazol-1-yl]methyl]benzoate mono hydrochloride] | 3.33 nM |
| CCCCc1ncc(/C=C2/C(=O)N(CCCC)C(=O)N2Cc2nn[nH]n2)n1Cc1ccc(C(=O)OC)cc1 [Example 44, Methyl Z-4-[[2-butyl-5-[[1-butyl-2,5-dioxo-3-(1H-tetrazol-5-ylmethyl)-4-imidazolidinylidene]methyl]-1H-imidazol-1-yl]methyl]benzoate monohydrochloride] | 41.7 nM |
| CCCCCCN1C(=O)N/C(=C\c2cnc(CCCC)n2Cc2ccc(C(=O)OC)cc2)C1=O [Example 47, Methyl ZX-4-[[2-butyl-5-[(1-hexyl-2,5-dioxo-4-imidazolidinylidene)methyl]-1H-imidazol-1-yl]m,ethyl]benzoate] | > 1000 nM |
| CCCCCCN1C(=O)/C(=C/c2cnc(CCCC)n2Cc2ccc(C(=O)OC)cc2)N(CCCC)C1=O [Example 48, Methyl Z-4-[[2-butyl-5-[(3-butyl-1-hexyl-2,5-dioxo-4-imidazolidinylidene)methyl]-1H-imidazol-1-yl]methyl]benzoate monohydrochloride] | 14.6 nM |
| CCCCCCN1C(=O)/C(=C/c2cnc(CCCC)n2Cc2ccc(C(=O)OC)cc2)N(Cc2ccsc2)C1=O [Example 49, Methyl Z-4-[[2-butyl-5-[[1-hexyl-2,5-dioxo-3-(3-thienylmethyl)-4-imidazolidinylidene]methyl]-1H-imidazol-1-yl]methyl]benzoate monohydrochloride] | 9.48 nM |
| CCCCCCN1C(=O)/C(=C/c2cnc(CCCC)n2Cc2ccc(C(=O)OC)cc2)N(Cc2ccccc2)C1=O [Example 50, Methyl Z-4-[[2-butyl-5-[[1-hexyl-2,5-dioxo-3-(phenylmethyl)-4-imidazolidinylidene]methyl]-1H-imidazol-1-yl]methyl]benzoate monohydrochloride] | 26.6 nM |
| CCCCCCN1C(=O)/C(=C/c2cnc(CCCC)n2Cc2ccc(C(=O)OC)cc2)N(Cc2csc(C)n2)C1=O [Example 51, Methyl Z-4-[[2-butyl-5-[1-hexyl-3-[(2-methyl-4-thiazolyl)methyl-2,5-dioxo-4-imidazolidinylidene]methyl]-1H-imidazol-1-yl]methyl]benzoate dihydrochloride] | 5.33 nM |
| CCCCc1ncc(/C=C2\NC(=O)N(COC)C2=O)n1Cc1ccc(C(=O)OC)cc1 [Example 53] | > 1000 nM |
| CCCCc1ncc(/C=C2/C(=O)N(COC)C(=O)N2CCCC)n1Cc1ccc(C(=O)OC)cc1 [Example 54, Methyl Z-4-[[2-butyl-5-[[3-butyl-1-(methoxymethyl)-2,5-dioxo-4-imidazolidinylidene]methyl]-1H-imidazol-1-yl]methyl]benzoate monohydrochloride] | 29.5 nM |
| CCCCc1ncc(/C=C2/C(=O)N(COC)C(=O)N2Cc2ccccc2)n1Cc1ccc(C(=O)OC)cc1 [Example 55, Methyl Z-4-[[2-butyl-5-[[1-(methoxymethyl)-2,5-dioxo-3-(phenylmethyl)-4-imidazolidinylidene]methyl]-1H-imidazol-1-yl]methyl]benzoate monohydrochloride] | 12.8 nM |
| CCCCc1ncc(/C=C2/C(=O)N(COC)C(=O)N2Cc2csc(C)n2)n1Cc1ccc(C(=O)OC)cc1 [Example 56, Methyl Z-4-[[2-butyl-5-[[1-(methoxymethyl)-3-[(2-methyl-4-thiazolyl)methyl]-2,5-dioxo-4-imidazolidinylidene]methyl]-1H-imidazol-1-yl]methyl]benzoate dihydrochloride] | 47.8 nM |
| CCCCc1ncc(/C=C2/C(=O)N(CCCC)C(=O)N2Cc2cccc[n+]2[O-])n1Cc1ccc(C(=O)OC)cc1 [Example 57, Methyl Z-4-[[2-butyl-5-[[1-butyl-2,5-dioxo-3-[(2-pyridinyl-N-oxide)-methyl]-4-imidazolidinylidene]methyl]-1H-imidazol-1-yl]methyl]benzoate] | 260 nM |
| CCCCc1ncc(/C=C2/C(=O)N(CCCC)C(=O)N2Cc2ccccn2)n1Cc1ccc(C(=O)OC)cc1 [Example 58, Methyl Z-4-[[2-butyl-5-[[1-butyl-2,5-dioxo-3-(2-pyridinylmethyl)-4-imidazolidinylidene]methyl]-1H-imidazol-1-yl]methyl]benzoate dihydrochloride] | 5.81 nM |
| CCCCc1ncc(/C=C2/C(=O)N(CCCC)C(=O)N2Cc2csc(C)n2)n1Cc1ccc(C(=O)O)cc1 [Example 59, Z-4-[[2-butyl-5-[[1-butyl-3-[(2-methyl-4thiazolyl)methyl]-2,5-dioxo-4-imidazolidinylidene]methyl]-1H-imidazol-1-yl]methyl]benzoic acid] | 1.21 nM |
| CCCCc1ncc(/C=C2\C(=O)N(CCCC)C(=O)N2Cc2csc(C)n2)n1Cc1ccc(C(=O)O)cc1 [Example 60, E-4-[[2-butyl-5-[[1-butyl-3-[(2-methyl-4-thiazolyl)methyl]-2,5-dioxo-4-imidazolidinylidene]methyl]-1H-imidazol-1-yl]methyl]benzoic acid] | 2.63 nM |
| CCCCc1ncc(/C=C2/C(=O)N(CCCC)C(=O)N2Cc2ccccc2Cl)n1Cc1ccc(C(=O)OC)cc1 [Example 61, Methyl Z-4-[[2-butyl-5-[[1-butyl-3-[(2-chlorophenyl)methyl]-2,5-dioxo-4-imidazolidinylidene]methyl]-1H-imidazol-1-yl-]methyl]benzoate monohydrochloride] | 59.8 nM |
| CCCCc1ncc(/C=C2/C(=O)N(CCCC)C(=O)N2Cc2csc(N)n2)n1Cc1ccc(C(=O)OC)cc1 [Example 62, Methyl Z-4-[[2-butyl-5-[[1-butyl-3-[(2-amino-4-thiazolyl)methyl]-2,5-dioxo-4-imidazolidinylidene]methyl]-1H-imidazol-1-yl]methyl]benzoate dihydrochloride] | 1.21 nM |
| CCCCc1ncc(/C=C2/C(=O)NC(=O)N2Cc2cccs2)n1Cc1ccc(C(=O)OC)cc1 [Example 63] | 5.08 nM |
| CCCCc1ncc(/C=C2/C(=O)NC(=O)N2Cc2ccc(Cl)cc2)n1Cc1ccc(C(=O)OC)cc1 [Example 64, Methyl Z-4-[[2-butyl-5-[[3-[(4-chlorophenyl)methyl]-2,5-dioxo-4-imidazolidinylidene]methyl]-1H-imidazol-1-yl]methyl]benzoate monohydrochloride] | 4.3 nM |
| CCCCc1ncc(CC2C(=O)NC(=O)N2CCCC)n1Cc1ccc(C(=O)O)cc1 (stereo not drawn) [Example 65, 4-[[2-Butyl-5-[(3-butyl-2,5-dioxo-4-imidazolidinyl)methyl]-1H-imidazol-1-yl]methyl]benzoic acid] | 200 nM |
| CCCCc1ncc(/C=C2/C(=O)N(CCCC)C(=O)N2Cc2csc(C)n2)n1Cc1ccc(C(=O)OC)cc1 [Example 68, Methyl Z-4-[[2-butyl-5-[[1-butyl-3-[(2-methyl-4-thiazolyl)methyl]-2,5-dioxo-4-imidazolidinylidene]methyl]-1H-imidazol-1-yl]methyl]benzoate dihydrochloride] | 4.2 nM |
| CCCCc1ncc(/C=C2/C(=O)N(CCCC)C(=O)N2Cc2c(C)noc2C)n1Cc1ccc(C(=O)OC)cc1 [Example 69, Methyl Z-4-[[2-butyl-5-[[1-butyl-3-[(3,5-dimethyl-4-isoxazolyl)methyl]-2,5-dioxo-4-imidazolidinylidene]methyl]-1H-imidazol-1-yl]methyl]benzoate monohydrochloride] | 198 nM |
| CCCCc1ncc(/C=C2/C(=O)NC(=O)N2CCCC)n1Cc1ccc(NS(=O)(=O)C(F)(F)F)cc1 [Example 71a, Z-N-[4-[[2-butyl-5-[(3-butyl-2,5-dioxo-4-imidazolidinylidene)methyl]-1H-imidazol-1-1yl]methyl]phenyl]-1,1,1,-trifluoromethanesulfonamide] | 3.21 nM |
| CCCCc1ncc(/C=C2\C(=O)NC(=O)N2CCCC)n1Cc1ccc(NS(=O)(=O)C(F)(F)F)cc1 [Example 71b, E-N-[4-[[2-butyl-5-[(3-butyl-2,5-dioxo-4-imidazolidinylidene)methyl]-1H-imidazol-1-yl]methyl]phenyl]-1,1,1-trifluoromethanesulfonamide] | 4.18 nM |
| CCCCc1ncc(/C=C2/C(=O)N(CCCC)C(=O)N2Cc2sccc2C)n1Cc1ccc(C(=O)OC)cc1 [Example 72, Methyl Z-4-[[2-butyl-5-[[1-butyl-3-[(3-methyl-2-thienyl)methyl]-2,5-dioxo-4-imidazolidinylidene]methyl]-1H-imidazol-1-yl]methyl]benzoate hydrochloride] | 23.9 nM |
| CCCCc1ncc(/C=C2/C(=O)N(CCCC)C(=O)N2Cc2ccc(C)s2)n1Cc1ccc(C(=O)O)cc1 [Example 74, Z-4-[[2-butyl-5-[[1-butyl-3-[(5-methyl-2-thienyl)methyl]-2,5-dioxo-4imidazolidinylidene]methyl]-1H-imidazol-1-yl]methyl]benzoic acid] | 0.6 nM |
